We go through 22 compounds from patent US20240150365A1 (Hotspot Therapeutics, Inc., priority 2022, published 2024).

Assay [1] concerns NF-kB. The assay is described as follows: NF-kB reporter assay in Jurkat cells stimulated with aCD3/aCD28/PMA. Format: cell-based. The conditions noted are these: Homo sapiens, Jurkat, read-out: NF-kB Reporter Assay IC50. In short, it runs like this:
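Jurkat cells (25,000/well, serum-free RPMI 1640) preincubated 1 hr at 37° C with serially diluted compound, then stimulated with aCD3/aCD28/PMA (final 5 μg/mL, 5 μg/mL, 0.03 μg/mL) for 4 hr. Reporter luminescence read with One-Glo; IC50 derived.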
In general terms: Reporter assays use an easily measured gene product as a stand-in for the process of interest.

Assay [2] has as its target T1, MALT1 (Homo sapiens, UniProt Q9UDY8).
T1 construct: Avi-tagged FL MALT-1 (Pharmaron, stored at −70° C.); Avi tag
T1 sequence (Q9UDY8 1-824): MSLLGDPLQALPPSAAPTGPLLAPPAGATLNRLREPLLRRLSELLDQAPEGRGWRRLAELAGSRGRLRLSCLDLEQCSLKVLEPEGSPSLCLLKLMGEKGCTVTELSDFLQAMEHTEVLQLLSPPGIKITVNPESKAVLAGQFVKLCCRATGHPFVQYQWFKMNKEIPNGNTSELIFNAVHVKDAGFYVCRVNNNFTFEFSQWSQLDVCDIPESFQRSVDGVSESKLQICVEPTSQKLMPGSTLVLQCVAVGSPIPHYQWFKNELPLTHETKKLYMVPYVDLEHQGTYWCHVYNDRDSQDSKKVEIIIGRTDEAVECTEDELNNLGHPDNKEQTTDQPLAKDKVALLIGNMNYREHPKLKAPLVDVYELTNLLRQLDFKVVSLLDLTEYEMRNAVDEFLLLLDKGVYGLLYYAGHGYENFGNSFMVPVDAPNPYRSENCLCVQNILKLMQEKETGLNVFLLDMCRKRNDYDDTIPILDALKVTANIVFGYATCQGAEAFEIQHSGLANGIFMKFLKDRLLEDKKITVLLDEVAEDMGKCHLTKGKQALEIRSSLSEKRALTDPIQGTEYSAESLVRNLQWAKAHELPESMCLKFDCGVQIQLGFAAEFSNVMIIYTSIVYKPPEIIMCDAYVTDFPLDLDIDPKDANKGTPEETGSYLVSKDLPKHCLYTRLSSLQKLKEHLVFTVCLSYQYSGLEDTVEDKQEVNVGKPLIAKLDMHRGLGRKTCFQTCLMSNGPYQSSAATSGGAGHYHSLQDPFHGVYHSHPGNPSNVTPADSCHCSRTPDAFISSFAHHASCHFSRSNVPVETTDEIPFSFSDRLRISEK
The assay is described as follows: MALT-1 Fluorogenic Peptide Cleavage Assay (MALT1 inhibition assay). The assay is classed as biochemical. The conditions noted are these: Avi-tagged FL MALT-1, Ac-LRSR-AMC peptide substrate, 30 min pre-incubation, 90 min reaction. Put shortly: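 Avi-tagged full-length MALT1 pre-incubated 30 min with compound (2% DMSO final), then cleavage of Ac-LRSR-AMC followed over 90 min at room temperature. AMC fluorescence read at 342/441 nm; % inhibition fitted to sigmoidal curves for IC50.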

Where [3] appears, read: Jurkat cells, 1 hr compound incubation, aCD3/aCD28/PMA stimulation 4 hr, One-Glo readout.

Read-outs that look alike come from different tables or passages of the source. Where only a bound is given, the exact number is not on record here.

By IC50 is commonly meant the concentration needed to halve the response being measured. Take `COc1ccc2cnn(C)c2c1NS(=O)(=O)c1ccc(-c2cnc(C)s2)nc1` [Example I-149, N-(6-Methoxy-1-Methyl-1H-Indazol-7-yl)-6-(2-Methylthiazol-5-yl)Pyridine-3-Sulfonamide]: the IC50 in assay [1] (setting [3]) and in assay [2] was less than 400 nM throughout.

With `COc1ccc2cnn(C)c2c1NS(=O)(=O)c1ccc(-n2cc(F)cn2)nc1` [Example I-150, 6-(4-Fluoro-1H-Pyrazol-1-yl)-N-(6-Methoxy-1-Methyl-1H-Indazol-7-yl)Pyridine-3-Sulfonamide], the IC50 in assay [1] (setting [3]) and in assay [2] was less than 400 nM throughout.

Take `COc1ccc2cnn(C)c2c1NS(=O)(=O)c1ccc(-n2nccc2OC)nc1` [Example I-151, N-(6-Methoxy-1-Methyl-1H-Indazol-7-yl)-6-(5-Methoxy-1H-Pyrazol-1-yl)Pyridine-3-Sulfonamide]: the IC50 in assay [1] (setting [3]) and in assay [2] was less than 400 nM in each case.

Turning to `CCC(=O)c1cnn(-c2ccc(S(=O)(=O)Nc3cccc4cnn(C)c34)cn2)c1` [Example I-152, N-(1-Methyl-1H-Indazol-7-yl)-6-(4-Propionyl-1H-Pyrazol-1-yl)Pyridine-3-Sulfonamide], the IC50 in assay [1] (setting [3]) is less than 400 nM; in assay [2], greater than 2500 nM.

For the compound `COc1ccc2cnn(C)c2c1NS(=O)(=O)c1ccc(-n2ccc(C3CC3)n2)nc1` [Example I-153, 6-(3-Cyclopropyl-1H-Pyrazol-1-yl)-N-(6-Methoxy-1-Methyl-1H-Indazol-7-yl)Pyridine-3-Sulfonamide], the IC50 in assay [1] (setting [3]) and in assay [2] was less than 400 nM in each case.

On to `Cn1ncc2cccc(NS(=O)(=O)c3ccc(-c4cc[nH]c(=O)c4)nc3)c21` [Example I-154, N-(1-Methyl-1H-Indazol-7-yl)-2′-Oxo-1′,2′-Dihydro-[2,4′-Bipyridine]-5-Sulfonamide], for which the IC50 in assay [1] (setting [3]) and in assay [2] was greater than 2500 nM in each case.

In the case of `Cc1[nH]ncc1-c1ccc(S(=O)(=O)Nc2cccc3cnn(C)c23)cn1` [Example I-155, N-(1-Methyl-1H-Indazol-7-yl)-6-(5-Methyl-1H-Pyrazol-4-yl)Pyridine-3-Sulfonamide], the figures for the IC50 in assay [1] (setting [3]) and in assay [2] were less than 400 nM and greater than 2500 nM, respectively.

In the case of `COc1ncc2cnn(C)c2c1NS(=O)(=O)c1ccc(-n2ccc(C(F)(F)F)n2)nc1` [Example I-156, N-(6-Methoxy-1-Methyl-1H-Pyrazolo[4,3-C]Pyridin-7-yl)-6-(3-(Trifluoromethyl)-1H-Pyrazol-1-yl)Pyridine-3-Sulfonamide], the IC50 in assay [1] (setting [3]) and in assay [2] was less than 400 nM each time.

`COc1ccc2cnn(C)c2c1NS(=O)(=O)c1ccc(-n2cc([N+](=O)[O-])cn2)nc1` [Example I-157, N-(6-Methoxy-1-Methyl-1H-Indazol-7-yl)-6-(4-Nitro-1H-Pyrazol-1-yl)Pyridine-3-Sulfonamide]: the IC50 in assay [1] (setting [3]) and in assay [2] was less than 400 nM throughout.

For `Cn1c(=O)c2cccc(NS(=O)(=O)c3ccc(-n4cc(C(F)(F)F)cn4)nc3)c2n1C` [Example I-158, N-(1,2-Dimethyl-3-Oxo-2,3-Dihydro-1H-Indazol-7-yl)-6-(4-(Trifluoromethyl)-1H-Pyrazol-1-yl)Pyridine-3-Sulfonamide], the IC50 in assay [1] (setting [3]) and in assay [2] was greater than 2500 nM throughout.

As for `Cn1ncc2ccc(O)c(NS(=O)(=O)c3ccc(-n4cc(C(F)(F)F)cn4)nc3)c21` [Example I-159, N-(6-Hydroxy-1-Methyl-1H-Indazol-7-yl)-6-(4-(Trifluoromethyl)-1H-Pyrazol-1-yl)Pyridine-3-Sulfonamide], the IC50 in assay [1] (setting [3]) and in assay [2] was less than 400 nM in each case.

As to `COc1ccc2cnn(C)c2c1NS(=O)(=O)c1ccc(-n2ccn(C)c2=O)nc1` [Example I-160, N-(6-Methoxy-1-Methyl-1H-Indazol-7-yl)-6-(3-Methyl-2-Oxo-2,3-Dihydro-1H-Imidazol-1-yl)Pyridine-3-Sulfonamide], the IC50 in assay [1] (setting [3]) was less than 400 nM; in assay [2], 1000 to 2500 nM.

For the compound `COc1ccc2cnn(C)c2c1NS(=O)(=O)c1ccc(-c2noc(C)n2)nc1` [Example I-161, N-(6-Methoxy-1-Methyl-1H-Indazol-7-yl)-6-(5-Methyl-1,2,4-Oxadiazol-3-yl)Pyridine-3-Sulfonamide], the values for the IC50 in assay [1] (setting [3]) and in assay [2] were 400 to 1000 nM and 1000 to 2500 nM, respectively.

`COc1ccc2cnn(C)c2c1N(C)S(=O)(=O)c1ccc(-n2cc(C(F)(F)F)cn2)nc1` [Example I-162, N-(6-Methoxy-1-Methyl-1H-Indazol-7-yl)-N-Methyl-6-(4-(Trifluoromethyl)-1H-Pyrazol-1-yl)Pyridine-3-Sulfonamide]: the IC50 in assay [1] (setting [3]) and in assay [2] was less than 400 nM in each case.

For `COc1ccc2cnn(C)c2c1N(CCN(C)C)S(=O)(=O)c1ccc(-n2cc(C(F)(F)F)cn2)nc1` [Example I-163, N-(2-(Dimethylamino)Ethyl)-N-(6-Methoxy-1-Methyl-1H-Indazol-7-yl)-6-(4-(Trifluoromethyl)-1H-Pyrazol-1-yl)Pyridine-3-Sulfonamide], the values for the IC50 in assay [1] and in assay [2] were 1000 to 2500 nM and less than 400 nM, respectively.

Regarding `COc1ccc2cnn(C)c2c1N(CCCN(C)C)S(=O)(=O)c1ccc(-n2cc(C(F)(F)F)cn2)nc1` [Example I-164, N-(3-(Dimethylamino)Propyl)-N-(6-Methoxy-1-Methyl-1H-Indazol-7-yl)-6-(4-(Trifluoromethyl)-1H-Pyrazol-1-yl)Pyridine-3-Sulfonamide], the IC50 was 400 to 1000 nM in assay [1] (setting [3]) and less than 400 nM in assay [2].

In the case of `COc1ccc2cnn(C)c2c1N(C)S(=O)(=O)c1ccc(-c2cc(C(F)(F)F)n(C)n2)nc1` [Example I-165, N-(6-Methoxy-1-Methyl-1H-Indazol-7-yl)-N-Methyl-6-(1-Methyl-5-(Trifluoromethyl)-1H-Pyrazol-3-yl)Pyridine-3-Sulfonamide], the IC50 in assay [1] (setting [3]) and in assay [2] was less than 400 nM each time.

Consider `COc1ccc2cnn(C)c2c1NS(=O)(=O)c1ccc(-c2nc(C)n[nH]2)nc1` [Example I-166, N-(6-Methoxy-1-Methyl-1H-Indazol-7-yl)-6-(3-Methyl-1H-1,2,4-Triazol-5-yl)Pyridine-3-Sulfonamide], for which the IC50 in assay [1] (setting [3]) and in assay [2] was greater than 2500 nM throughout.

In the case of `COc1ccc2cnn(C)c2c1NS(=O)(=O)c1ccc(-c2nc(C(F)(F)F)n[nH]2)nc1` [Example I-167, N-(6-Methoxy-1-Methyl-1H-Indazol-7-yl)-6-(3-(Trifluoromethyl)-1H-1,2,4-Triazol-5-yl)Pyridine-3-Sulfonamide], the values for the IC50 in assay [1] (setting [3]) and in assay [2] were greater than 2500 nM and 1000 to 2500 nM, respectively.

As to `COc1ccc2cnn(C)c2c1NS(=O)(=O)c1ccc(-c2nnc(C)n2C)nc1` [Example I-168, 6-(4,5-dimethyl-4H-1,2,4-triazol-3-yl)-N-(6-methoxy-1-methyl-1H-indazol-7-yl)pyridine-3-sulfonamide], the IC50 in assay [1] (setting [3]) and in assay [2] was greater than 2500 nM throughout.

Take `COc1ccc2cnn(C)c2c1NS(=O)(=O)c1ccc(-c2nc(C)no2)nc1` [Example I-169, N-(6-Methoxy-1-Methyl-1H-Indazol-7-yl)-6-(3-Methyl-1,2,4-Oxadiazol-5-yl)Pyridine-3-Sulfonamide]: the IC50 is greater than 2500 nM in assay [1] (setting [3]) and 1000 to 2500 nM in assay [2].

For the compound `COc1ccc2cnn(C)c2c1NS(=O)(=O)c1ccc(-c2nnc(C)o2)nc1` [Example I-170, N-(6-Methoxy-1-Methyl-1H-Indazol-7-yl)-6-(5-Methyl-1,3,4-Oxadiazol-2-yl)Pyridine-3-Sulfonamide], the IC50 in assay [1] (setting [3]) and in assay [2] was greater than 2500 nM throughout.
